# Literature values in PubChem BioAssay AID1259409 (Chemical Carcinogenesis Research Information System (CCRIS), 2018).
# System: rodent chemically induced tumor inhibition, incidence and multiplicity
# Assay: CCRIS tumor inhibitor studies
compound,measurement,setting,value
O=C(O[C@@H]1Cc2c(O)cc(O)cc2O[C@@H]1c1cc(O)c(O)c(O)c1)c1cc(O)c(O)c(O)c1,"tumour outcome (control, treated, inhibition, significance)","Carcinogen: 4-(METHYLNITROSAMINO)-1-(3-PYRIDYL)-1-BUTANONE, 64091-91-4, Dose [Inhibitor]: 0, 560 PPM IN DRINKING WATER FOR 13 WK BEGINNING 2 WK PRIOR TO CARCINOGEN TREATMENT (STUDY DURATION: 18 WK), Route [Inhibitor]: ORAL, Species: MOUSE, Strain/Sex: STRAIN-A/FEMALE, Target Tissue: Type of Lesion: LUNG: ADENOMA, Dose [Carcinogen]: 11.65 MG/KG 3/WK FOR 10 WK, Promoter: NONE USED","100%, 100%, 0%, not significant"
same,"tumour outcome (control, treated, inhibition, significance)","Carcinogen: 4-NITROQUINOLINE-N-OXIDE (56-57-5), Dose [Inhibitor]: 0.05% IN DIET FOR 25 WKS (STUDY DURATION: 25 WKS), Route [Inhibitor]: DIET, Species: MOUSE, Strain/Sex: DDY/MALE (10,10)/(10,?), Target Tissue: Type of Lesion: LUNG, Dose [Carcinogen]: 10 MG/KG BW ONCE, Promoter: CACODYLIC ACID (75-60-5)","100%, 70%, 30%, not calculated"
same,"tumour outcome (control, treated, inhibition, significance)","Carcinogen: 7,12-DIMETHYLBENZ[A]ANTHRACENE, 57-97-6, Dose [Inhibitor]: 0, 0.5% (81% EGCG) IN DIET OF RATS WITH TUMORS AT 13 WK POST CARCINOGEN DOSE (STUDY DURATION: 36 WK), Route [Inhibitor]: ORAL, Species: RAT, Strain/Sex: SPRAGUE-DAWLEY/FEMALE, Target Tissue: Type of Lesion: MAMMARY GLAND: CARCINOMA, Dose [Carcinogen]: 50 MG/KG BW ONCE, Promoter: NONE USED","14/14 (100%), 14/14 (100%), 0%, not significant"
same,"tumour outcome (control, treated, inhibition, significance)","Carcinogen: 7,12-DIMETHYLBENZ[A]ANTHRACENE, 57-97-6, Dose [Inhibitor]: 0, 0.5% (81% EGCG) IN DIET OF RATS WITHOUT TUMORS AT 13 WK POST CARCINOGEN DOSE (STUDY DURATION: 36 WK), Route [Inhibitor]: ORAL, Species: RAT, Strain/Sex: SPRAGUE-DAWLEY/FEMALE, Target Tissue: Type of Lesion: MAMMARY GLAND: CARCINOMA, Dose [Carcinogen]: 50 MG/KG BW ONCE, Promoter: NONE USED","11/14 (79%), 12/14 (86%), -9%, not significant"
same,"tumour outcome (control, treated, inhibition, significance)","Carcinogen: 7,12-DIMETHYLBENZ[A]ANTHRACENE, 57-97-6, Dose [Inhibitor]: 0, 0.5% POLYPHEN E (58.4% EGCG) IN DIET OF RATS WITH TUMORS AT 13 WK POST CARCINOGEN DOSE (STUDY DURATION: 36 WK), Route [Inhibitor]: ORAL, Species: RAT, Strain/Sex: SPRAGUE-DAWLEY/FEMALE, Target Tissue: Type of Lesion: MAMMARY GLAND: CARCINOMA, Dose [Carcinogen]: 50 MG/KG BW ONCE, Promoter: NONE USED","14/14 (100%), 14/14 (100%), 0%, not significant"
same,"tumour outcome (control, treated, inhibition, significance)","Carcinogen: 7,12-DIMETHYLBENZ[A]ANTHRACENE, 57-97-6, Dose [Inhibitor]: 0, 5 UMOL IN 0.2 ML ACETONE 1/D FOR 7 D PRIOR TO CARCINOGEN DOSE (STUDY DURATION: 16 WK), Route [Inhibitor]: DERMAL, Species: MOUSE, Strain/Sex: SENCAR/FEMALE, Target Tissue: Type of Lesion: SKIN: TUMOR, Dose [Carcinogen]: 10 NMOL IN 0.2 ML ACETONE ONCE, Promoter: 12-O-TETRADECANOYLPHORBOL-13-ACETATE, 16561-29-8","100%, 100%, 0%, not significant"
same,"tumour outcome (control, treated, inhibition, significance)","Carcinogen: N-ETHYL-N'-NITRO-N-NITROSGUANIDINE, 4245-77-6, Dose [Inhibitor]: 0, 0.005% IN DIET FOR 12 WK BEGINNING POST CARCINOGEN TREATMENT (STUDY DURATION: 16 WK), Route [Inhibitor]: ORAL, Species: MOUSE, Strain/Sex: C57BL/MALE, Target Tissue: Type of Lesion: DUODENUM: TUMOR, Dose [Carcinogen]: 100 MG/L IN DRINKING WATER FOR 4 WK, Promoter: NONE USED","63%, 20%, 68%, p<0.001"
same,"tumour outcome (control, treated, inhibition, significance)","Carcinogen: N-ETHYL-N'-NITRO-N-NITROSOGUANIDINE, 4245-77-6, Dose [Inhibitor]: 0, 0.005% IN DIET FOR 12 WK BEGINNING POST CARCINOGEN TREATMENT (STUDY DURATION: 16 WK), Route [Inhibitor]: ORAL, Species: MOUSE, Strain/Sex: C57BL/MALE, Target Tissue: Type of Lesion: DUODENUM: TUMOR, Dose [Carcinogen]: 100 MG/L IN DRINKING WATER FOR 4 WK, Promoter: NONE USED","63%, 20%, 68%, p<0.001"
same,"tumour outcome (control, treated, inhibition, significance)","Carcinogen: N-ETHYL-N'-NITRO-N-NITROSOGUANIDINE, 4245-77-6, Dose [Inhibitor]: 0.005% (0.15 MG/MOUSE/D) IN DRINKING WATER FOR 12 WK POST CARCINOGEN DOSE (STUDY DURATION: 16 WK), Route [Inhibitor]: ORAL, Species: MOUSE, Strain/Sex: C57BL/MALE, Target Tissue: Type of Lesion: DUODENUM: TUMOR, Dose [Carcinogen]: 100 MG/L DRINKING WATER FOR 4 WK, Promoter: NONE USED","10/16 (63%), 3/15 (20%), 68%, p<0.001"
same,"tumour outcome (control, treated, inhibition, significance)","Carcinogen: N-METHYL-N'-NITRO-N-NITROSOGUANIDINE, 70-25-7, Dose [Inhibitor]: 0, 0.05% IN DIET FOR 16 WK BEGINNING POST CARCINOGEN TREATMENT (STUDY DURATION: 44 WK), Route [Inhibitor]: ORAL, Species: RAT, Strain/Sex: WISTAR/MALE, Target Tissue: Type of Lesion: STOMACH: TUMOR, Dose [Carcinogen]: 80 MG/L IN DRINKING WATER FOR 28 WK, Promoter: NONE USED","62%, 31%, 50%, p<0.05"
same,"tumour outcome (control, treated, inhibition, significance)","Carcinogen: N-METHYL-N'-NITRO-N-NITROSOGUANIDINE, 70-25-7, Dose [Inhibitor]: 0, 0.05% IN DRINKING WATER FOR 15 WK (STUDY DURATION: 44 WK), Route [Inhibitor]: ORAL, Species: RAT, Strain/Sex: WISTAR/MALE, Target Tissue: Type of Lesion: GLANDULAR STOMACH: TUMOR, Dose [Carcinogen]: 80 MG/L IN DRINKING WATER FOR 28 WK, Promoter: NONE USED","21/34 (62%), 11/35 (31%), 50%, p<0.05"
same,"tumour outcome (control, treated, inhibition, significance)","Carcinogen: N-METHYL-N'-NITRO-N-NITROSOGUANIDINE, 70-25-7, Dose [Inhibitor]: 0, 0.05% IN DRINKING WATER FOR 15 WK BEGINNING POST CARCINOGEN TREATMENT (STUDY DURATION: 44 WK), Route [Inhibitor]: ORAL, Species: RAT, Strain/Sex: WISTAR/MALE, Target Tissue: Type of Lesion: GLANDULAR STOMACH: TUMOR, Dose [Carcinogen]: 80 MG/L IN DRINKING WATER FOR 28 WK, Promoter: NONE USED","21/34 (62%), 11/35 (31%), 50%, p<0.05"
same,"tumour outcome (control, treated, inhibition, significance)","Carcinogen: NONE USED, Dose [Inhibitor]: 0, 0.05% IN DRINKING WATER AD LIBITUM FOR 58 WK (STUDY DURATION: 65 WK), Route [Inhibitor]: ORAL, Species: MOUSE, Strain/Sex: C3H/HENCRJ/MALE, Target Tissue: Type of Lesion: LIVER: HEPATOMA, Promoter: NONE USED","15/18 (83%), 14/25 (56%), 33%, p<0.05"
same,"tumour outcome (control, treated, inhibition, significance)","Carcinogen: NONE USED, Dose [Inhibitor]: 0, 0.1% IN DRINKING WATER AD LIBITUM FOR 58 WK (STUDY DURATION: 65 WK), Route [Inhibitor]: ORAL, Species: MOUSE, Strain/Sex: C3H/HENCRJ/MALE, Target Tissue: Type of Lesion: LIVER: HEPATOMA, Promoter: NONE USED","15/18 (83%), 12/23 (52%), 37%, p<0.05"
